In PubChem BioAssay (NCI) one finds TGI data, which are given here for eight molecules.

SMILES strings stand for the structures.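 Cultured in 96-well plates, cells were exposed to test compound for 48 hours across five concentrations. The concentration for full growth arrest is given as TGI.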

Test systems include KM12 colon; A549 NSCLC; NCI/ADR-RES ovarian; SK-MEL-2 melanoma; EKVX NSCLC; MCF7 breast; SK-MEL-5 melanoma; TK-10 renal; M14 melanoma; HOP-92 NSCLC; DU-145 prostate; LOX IMVI melanoma; UACC-62 melanoma; NCI-H23 lung; BT-549 breast; UO-31 renal; T-47D breast.
Common to all, as to assay: DTP human tumour cell line panel, 48 h

One may read the TGI as the concentration giving total growth inhibition. Turning to `CC(ON(C(c1ccccc1)C(C)C)C(C)(C)C)c1ccccc1` (stereo unspecified), the TGI with KM12 colon turned out to be 41.8 µM; in the test with A549 NSCLC it was 84.9 µM; in the test on NCI/ADR-RES ovarian, 56.7 µM; in the test on SK-MEL-2 melanoma it was 34.4 µM; in the test on EKVX NSCLC, 29 µM; with MCF7 breast, 30 µM. In addition, the concentration for total growth inhibition (TGI) in the test with SK-MEL-5 melanoma was determined as 29.7 µM; in the test on TK-10 renal it was 46.2 µM; in the test with M14 melanoma, 49.2 µM; in the test with HOP-92 NSCLC it was 40.3 µM; in the test with DU-145 prostate, 32.8 µM; in the test on LOX IMVI melanoma it was 35.3 µM. The concentration for total growth inhibition (TGI) with UACC-62 melanoma was found to be 32.2 µM; in the test on NCI-H23 lung, 63.9 µM; with BT-549 breast, 28.7 µM; with UO-31 renal it was 43.3 µM; in the test with T-47D breast, 81 µM.
As for `CC(C)OC(=O)c1ccc(CCC2=CC(=O)C=CC2=O)cc1`, the total growth inhibition concentration (TGI) in the test on KM12 colon is 27 µM; in the test with A549 NSCLC it was above 79.7 µM; in the test on NCI/ADR-RES ovarian, 22.1 µM; in the test on SK-MEL-2 melanoma it was 43.1 µM; with EKVX NSCLC, 23.8 µM; with MCF7 breast, 47.7 µM. For the same molecule, the concentration for total growth inhibition (TGI) in the test with SK-MEL-5 melanoma was 30 µM; in the test with TK-10 renal, 22.4 µM; with M14 melanoma it was 39 µM; with HOP-92 NSCLC, 13.9 µM; with DU-145 prostate it was 37 µM; with LOX IMVI melanoma, 14.2 µM. Besides, the total growth inhibition concentration (TGI) turned out to be 28.8 µM in the test on UACC-62 melanoma; 31.3 µM with NCI-H23 lung; 19.7 µM with BT-549 breast; 14.2 µM with UO-31 renal; 4.45 µM in the test with T-47D breast.
Consider `COc1ccc(N=NC(=O)NC(Cc2ccccc2)C(=O)O)cc1` (stereo unspecified), for which the concentration for total growth inhibition (TGI) in the test on KM12 colon, in the test on A549 NSCLC, in the test on NCI/ADR-RES ovarian, in the test on SK-MEL-2 melanoma, in the test with EKVX NSCLC and in the test with MCF7 breast was above 100 µM each time. Moreover, the TGI in the test with SK-MEL-5 melanoma, with TK-10 renal, with M14 melanoma, in the test with HOP-92 NSCLC, with DU-145 prostate and in the test with LOX IMVI melanoma was above 100 µM in each case. The TGI in the test on UACC-62 melanoma, in the test on NCI-H23 lung, in the test on BT-549 breast, in the test with UO-31 renal and in the test with T-47D breast was above 100 µM throughout.
In the case of `O=c1c2cc(I)ccc2nc(SCc2nncs2)n1Cc1ccccc1`, the TGI is above 100 µM in the test with KM12 colon; above 100 µM with A549 NSCLC; above 100 µM in the test with NCI/ADR-RES ovarian; 85.5 µM with SK-MEL-2 melanoma; 48.6 µM with EKVX NSCLC; above 100 µM with MCF7 breast. In addition, the TGI in the test on SK-MEL-5 melanoma is 88.3 µM; with TK-10 renal, above 100 µM; in the test on M14 melanoma, above 100 µM; in the test on HOP-92 NSCLC it was 35.1 µM; in the test with DU-145 prostate, above 100 µM; in the test with LOX IMVI melanoma, above 100 µM. Also, the TGI with UACC-62 melanoma was above 100 µM; with NCI-H23 lung it was above 100 µM; with BT-549 breast, above 100 µM; in the test with UO-31 renal, 2.6 µM; with T-47D breast it was above 100 µM.
Take `CN(C)CCCN1C(=S)N(CCCN(C)C)c2c3ccccc3nc3c([N+](=O)[O-])ccc1c23`: the TGI in the test with KM12 colon is 16.1 µM; in the test on A549 NSCLC, above 42.2 µM; in the test on NCI/ADR-RES ovarian it was 27.9 µM; in the test with SK-MEL-2 melanoma it was 34.8 µM; with EKVX NSCLC, 25.1 µM; with MCF7 breast, 19.4 µM. The TGI came out at 18.8 µM in the test with SK-MEL-5 melanoma; 24.2 µM in the test with TK-10 renal; 26.8 µM with M14 melanoma; 19.5 µM in the test with HOP-92 NSCLC; 19.8 µM in the test on DU-145 prostate; 17.9 µM in the test with LOX IMVI melanoma. Also, the TGI in the test on UACC-62 melanoma came to 24.3 µM; with NCI-H23 lung, 23.7 µM; in the test on BT-549 breast, 36.4 µM; in the test on UO-31 renal it was 27.9 µM; with T-47D breast, 31.6 µM.
Turning to `COc1cc(OC)c2c(c1)OC(c1ccccc1)CC2=O` (stereo unspecified), the TGI in the test on KM12 colon, with A549 NSCLC, in the test with NCI/ADR-RES ovarian, with SK-MEL-2 melanoma, in the test with EKVX NSCLC and in the test on MCF7 breast was above 10 µM in each case. Further, the TGI in the test with SK-MEL-5 melanoma, in the test with TK-10 renal, in the test on M14 melanoma, with HOP-92 NSCLC, in the test on DU-145 prostate and in the test on LOX IMVI melanoma was above 10 µM throughout. Also, the total growth inhibition concentration (TGI) in the test on UACC-62 melanoma, with NCI-H23 lung, in the test with BT-549 breast, with UO-31 renal and in the test on T-47D breast was above 10 µM each time.
Consider `CN(C)CCCc1cccc2[nH]c3c(c12)CN(C)CC3`, for which the TGI in the test with KM12 colon, in the test on A549 NSCLC, in the test on NCI/ADR-RES ovarian, with SK-MEL-2 melanoma, with EKVX NSCLC and in the test with MCF7 breast was above 100 µM each time. Moreover, the TGI is above 100 µM with SK-MEL-5 melanoma; above 100 µM in the test with TK-10 renal; 33.9 µM with M14 melanoma; above 100 µM with HOP-92 NSCLC; above 100 µM in the test on DU-145 prostate; above 100 µM in the test on LOX IMVI melanoma. For the same molecule, the TGI with UACC-62 melanoma, with NCI-H23 lung, in the test with BT-549 breast, with UO-31 renal and in the test on T-47D breast was above 100 µM each time.
Consider `O=c1[nH]c(Cc2ccccc2)nc2c1sc1nc3ccccc3n12`, for which the total growth inhibition concentration (TGI) in the test with KM12 colon, with A549 NSCLC, in the test on NCI/ADR-RES ovarian, in the test with SK-MEL-2 melanoma, with EKVX NSCLC and in the test on MCF7 breast was above 100 µM throughout. The TGI in the test with SK-MEL-5 melanoma, in the test on TK-10 renal, with M14 melanoma, with HOP-92 NSCLC, in the test with DU-145 prostate and in the test on LOX IMVI melanoma was above 100 µM throughout. Also, the total growth inhibition concentration (TGI) in the test with UACC-62 melanoma, in the test with NCI-H23 lung, in the test on BT-549 breast, with UO-31 renal and in the test with T-47D breast was above 100 µM throughout.
